# Test results: US9254299B2, “Administration of hypoxia activated prodrugs in combination with Chk1 inhibitors for treating cancer” (THRESHOLD PHARMACEUTICALS, INC., priority 2011, dated 2016)
# “Also recorded” adds a separate entry of the source. Where two headings read alike, the source gives them in different places. Residues, ends and D or L forms follow the SMILES beside them. *: point of attachment. Cbz = O=C(OCc1ccccc1)*; CH2F = FC*
# Assays:
# H460 cells = assay: 3-day in vitro proliferation assay, AlamarBlue, H460 cells; assay type: cell-based; details: for change of activity by the presence of Chk1 inhibitors: H460, p53 wild type; for anti cancer efficacy in combination with TH-302: H460 non-small cell lung cell line
# Procedure: (§1) After a wash to remove drugs, cells were incubated with fresh media at 37° C. for an additional 3 days in the presence of a Chk1 inhibitor. Cell viability was determined using AlamarBlue. For a doxorubicin group (doxorubicin also induces cell cycle arrest in the G2/M phase and was used as a non-hypoxia activated prodrug control), cells were co-treated with doxorubicin and Chk1 inhibitors for 3 days.
# Du145 cells = assay: 3-day in vitro proliferation assay, AlamarBlue, Du145 cells; assay type: cell-based; details: Du145, p53 heterozygous
# Procedure: as §1
# Appropriate Du145 and H460 cells were treated with TH-302 and Chk1 inhibitors as described in Example 1.
# Cdc2-Y15 phosphorylation = assay: Immunoblot of Cdc2-Y15 phosphorylation and protein expression; assay type: cell-based; details: for Cdc2-Y15 phosphorylation / DNA damaging agent-induced increase of Cdc2-Y15 phosphorylation in the presence of the Chk1 inhibitor: HeLa; for Cdc2-Y15 phosphorylation: agent alone; for DNA damaging agent-induced increase of Cdc2-Y15 phosphorylation in the presence of the Chk1 inhibitor: with Chk1 inhibitor
# Procedure: (§2) HeLa cells were treated with TH-302 and a Chk1 inhibitor as described in Example 1. Cells were harvested and analyzed for cell cycle distribution by flow cytometry and for protein expression by immunoblot.
# Hela cells [1] = assay: 3-day in vitro proliferation assay, AlamarBlue, Hela cells; assay type: cell-based; details: for anti cancer efficacy in combination with TH-302: HeLa cervical cell line
# Procedure: as §1
# HT29 cells [2] = assay: 3-day in vitro proliferation assay, AlamarBlue, HT29 cells; assay type: cell-based; details: for anti cancer efficacy in combination with TH-302: HT-29 colon cell line
# Procedure: as §1
# HT-29 tumor = assay: HT29 xenograft antitumor activity; assay type: in vivo; details: HT-29 tumor-bearing mice, i.p., drug alone (TH-302 50 mg/kg QD×5/wk×2 wks or 100 mg/kg twice/wk×2 wks; AZD7762 12.5 mg/kg)
# γH2AX = γH2AX immunofluorescence (DNA damage response); assay type: cell-based; details: p53−/− HT29 cells; 2 hr normoxic or hypoxic, then 4 hr; AZD7762 0.1 μM
# Procedure: HT29 cells were permeabilized with 1% Triton X-100 and incubated with γH2AX monoclonal antibody for 2 hr and goat anti-mouse-FITC for 1 hr. Cells were imaged using a fluorescent microscope (Nikon TS-100).
# HT29 cells [3] = assay: Luminescence-based caspase activity assay (Caspase Glo3/7), apoptosis; assay type: cell-based; details: for induction of apoptosis: TH-302 0-10 μM air, 0-1 μM N2, AZD7762 0.1 μM, 2 hr + 46 hr
# Procedure: Induction of apoptosis was also assessed. HT29 cells were seeded at a density of 40,000 cells per well of a 24 well plate. […] A luminescence-based caspase activity assay was performed. […] To validate the specificity of apoptotic signal, the pan-caspase inhibitor ZVAD was included in the testing.
# Chk2 = Chk2 (Homo sapiens, UniProt O96017); details: read-out: IC50 for Chk2; cited from earlier work
# Chk2, sequence (O96017 whole entry): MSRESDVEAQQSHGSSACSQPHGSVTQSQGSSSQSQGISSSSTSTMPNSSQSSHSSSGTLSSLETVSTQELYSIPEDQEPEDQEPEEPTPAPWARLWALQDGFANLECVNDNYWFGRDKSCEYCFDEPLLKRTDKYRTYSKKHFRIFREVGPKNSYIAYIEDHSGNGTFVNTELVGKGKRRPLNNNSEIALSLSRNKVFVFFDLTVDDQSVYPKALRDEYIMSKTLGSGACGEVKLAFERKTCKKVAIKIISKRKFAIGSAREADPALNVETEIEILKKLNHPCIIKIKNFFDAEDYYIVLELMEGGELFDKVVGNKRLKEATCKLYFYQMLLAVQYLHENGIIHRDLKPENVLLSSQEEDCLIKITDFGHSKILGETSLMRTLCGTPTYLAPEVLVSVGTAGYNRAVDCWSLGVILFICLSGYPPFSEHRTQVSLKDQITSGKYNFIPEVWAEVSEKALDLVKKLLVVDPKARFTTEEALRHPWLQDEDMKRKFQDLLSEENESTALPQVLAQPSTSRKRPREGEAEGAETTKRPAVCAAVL
# p53 deficient cells = assay: Proliferation assay in p53 deficient cells (Horizon Discovery); assay type: cell-based
# Procedure: as §1
# (§3) Cells (provided by Horizon Discovery Ltd. and generated using Horizon's adeno-associated virus (AAV) technology Genesis™) were treated as described in Example 1.
# p53 proficient cells = assay: Proliferation assay in p53 proficient cells (Horizon Discovery); assay type: cell-based
# Procedure: as §1, §3
# Hela cells [4] = assay: Cell cycle distribution by flow cytometry; assay type: cell-based
# Procedure: as §2
# AA8 CHO cells = assay: Cytotoxicity in HDR proficient AA8 CHO cells; assay type: cell-based; details: Cricetulus griseus
# Procedure: as §1
# (§4) To investigate which DNA repair system is affected by Chk-1 inhibitor-mediated enhancement of TH-302 cytotoxicity, CHO cell-based DNA repair mutant cell line pairs were utilized. The experimental details were as described in Example 1. […] HDR (homology-dependent repair) is the specific type of DNA repair capable of repairing TH-302-induced DNA damage.
# irs1SF = assay: Cytotoxicity in HDR deficient irs1SF cells; assay type: cell-based
# Procedure: as §1, §4
# UV41 = assay: Cytotoxicity in HDR deficient UV41 cells; assay type: cell-based
# Procedure: as §1, §4
# Rad51 = assay: Immunoblot of Rad51 expression; assay type: cell-based; details: HT29; samples as for the Histone H3 blot
# Procedure: To explore involved signaling pathways, an immunoblot analysis was conducted. HT29 cells were seeded in p60 dishes at a density of 2×10^6 cells per dish and incubated overnight for cell attachment. […] Insoluble debris was pelleted and the protein concentration of the resulting supernatant determined using a Sigma BCA kit (St. Louis, Mo.). About 10 μg of protein from each sample were loaded onto and SDS gel and electrophoresed and then electrotransferred to a nitrocellulose membrane. Proteins were detected with an electrochemiluminescent detection system (ChemiGlow; Protein Simple, Santa Clara, Calif.) using antibodies recognizing Histone H3.
# The samples were collected as described above for the Histone H3 blot. In response to TH-302, Rad51 expression levels were increased.
molecule,measurement,setting,value
"COc1cccc2c1C(=O)c1c(O)c3c(c(O)c1C2=O)C[C@@](O)(C(=O)CO)C[C@@H]3O[C@H]1C[C@H](N)[C@H](O)[C@H](C)O1 [doxorubicin, reference compound]",change of activity by the presence of Chk1 inhibitors,H460 cells,lack of enhanced activity
same,change of activity by the presence of Chk1 inhibitors,Du145 cells,lack of enhanced activity
same,Cdc2-Y15 phosphorylation,Cdc2-Y15 phosphorylation,upregulate phosphorylation of Cdc2-Y15
same,DNA damaging agent-induced increase of Cdc2-Y15 phosphorylation in the presence of the Chk1 inhibitor,Cdc2-Y15 phosphorylation,completely eliminated
NC(=O)Nc1cc(-c2cccc(F)c2)sc1C(=O)N[C@H]1CCCNC1 [AZD7762],anti cancer efficacy in combination with TH-302,Hela cells [1],increased anti cancer efficacy
same,anti cancer efficacy in combination with TH-302,HT29 cells [2],increased anti cancer efficacy
same,anti cancer efficacy in combination with TH-302,H460 cells,not
same,tumor growth,HT-29 tumor,produced a growth delay
same,γH2AX staining,γH2AX,could induce γH2AX
same,induction of apoptosis,HT29 cells [3],slight increase
same,IC50,Chk2,< 0.01 µM
PF477736,anti cancer efficacy in combination with TH-302,Hela cells [1],increased anti cancer efficacy
same,anti cancer efficacy in combination with TH-302,HT29 cells [2],increased anti cancer efficacy
same,anti cancer efficacy in combination with TH-302,H460 cells,not
Cn1c(COP(=O)(NCCBr)NCCBr)cnc1[N+](=O)[O-] [TH-302],enhancement of TH-302 activity by the presence of a Chk1 inhibitor,"Hela cells [1]; Hela, p53-deficient, any one of PF477736, AZD7762, LY2603618",15 to 50 fold
same,change of activity by the presence of Chk1 inhibitors,"Hela cells [1]; Hela, 0.4 μM PF477736, 0.1 μM AZD7762 or 0.5 μM LY2603618, normoxia or hypoxia",significantly enhanced
same,enhancement of TH-302 activity by the presence of a Chk1 inhibitor,"HT29 cells [2]; HT29, p53-deficient, any one of PF477736, AZD7762, LY2603618",15 to 50 fold
same,change of activity by the presence of Chk1 inhibitors,"HT29 cells [2]; HT29, 0.4 μM PF477736, 0.1 μM AZD7762 or 0.5 μM LY2603618, normoxia or hypoxia",significantly enhanced
same,change of activity by the presence of Chk1 inhibitors,H460 cells,not enhanced; also recorded: not affected
same,change of activity by the presence of Chk1 inhibitors,Du145 cells,not enhanced
same,change of activity by co-treatment with a Chk1 inhibitor,p53 deficient cells,significantly enhanced
same,change of activity by co-treatment with a Chk1 inhibitor,p53 proficient cells,not
same,cell cycle arrest,Hela cells [4]; agent alone,concentration-dependent cell cycle arrest at G2/M
same,TH-302-mediated G2/M arrest in the presence of the Chk1 inhibitor,Hela cells [4]; with Chk1 inhibitor,abrogated
same,"expression of Cdc-2, Myt1 and Chk1",Cdc2-Y15 phosphorylation,does not affect
same,Cdc2-Y15 phosphorylation,Cdc2-Y15 phosphorylation,upregulate phosphorylation of Cdc2-Y15
same,DNA damaging agent-induced increase of Cdc2-Y15 phosphorylation in the presence of the Chk1 inhibitor,Cdc2-Y15 phosphorylation,completely eliminated
same,tumor growth,HT-29 tumor,produced a growth delay
same,γH2AX staining,γH2AX,could induce γH2AX
same,induction of apoptosis,HT29 cells [3],did not induce apoptosis
same,IC50,"AA8 CHO cells; AA8, N2, read-out: IC50 of TH-302 monotherapy",3.2 µM
same,IC50,"AA8 CHO cells; AA8, N2, with AZD7762 (0.1 μM), read-out: TH-302 IC50",1.2 µM
same,IC50,"AA8 CHO cells; AA8, air, read-out: IC50 of TH-302 monotherapy",490 µM
same,IC50,"AA8 CHO cells; AA8, air, with AZD7762 (0.1 μM), read-out: TH-302 IC50",260 µM
same,IC50,"irs1SF; N2, read-out: IC50 of TH-302 monotherapy",0.4 µM
same,IC50,"irs1SF; N2, with AZD7762 (0.1 μM), read-out: TH-302 IC50",0.3 µM
same,IC50,"irs1SF; air, read-out: IC50 of TH-302 monotherapy",54 µM
same,IC50,"irs1SF; air, with AZD7762 (0.1 μM), read-out: TH-302 IC50",63 µM
same,IC50,"UV41; UV41, N2, with AZD7762 (0.1 μM), read-out: TH-302 IC50",0.06 µM
same,IC50,"UV41; UV41, N2, read-out: IC50 of TH-302 monotherapy",0.07 µM
same,IC50,"UV41; UV41, air, with AZD7762 (0.1 μM), read-out: TH-302 IC50",26 µM
same,IC50,"UV41; UV41, air, read-out: IC50 of TH-302 monotherapy",29 µM
same,Rad51 expression levels,Rad51,increased
CC(NC(=O)C(NC(=O)OCc1ccccc1)C(C)C)C(=O)NC(CC(=O)O)C(=O)CF (stereo not drawn) [ZVAD] (Cbz-Val-Ala-Asp-CH2F; configuration not given here),apoptotic signal generated by the combination therapy,HT29 cells [3]; added to TH-302 and AZD7762,reduced the apoptotic signal
Cc1cnc(NC(=O)Nc2cc(Br)c(C)cc2OC[C@@H]2CNCCO2)cn1 [LY2603618],anti cancer efficacy in combination with TH-302,Hela cells [1],increased anti cancer efficacy
same,anti cancer efficacy in combination with TH-302,HT29 cells [2],increased anti cancer efficacy
same,anti cancer efficacy in combination with TH-302,H460 cells,not
